In patent US20260159520A1, “HETEROBIFUNCTIONAL COMPOUNDS AND METHODS OF TREATING DISEASE” (Halda Therapeutics OpCo, Inc., priority 2022, published 2026) one finds Kd and GI50 data, which are given here for 17 compounds.

In assay [1] the target is T1, androgen receptor (Homo sapiens, UniProt P10275).
T1 construct: endogenous in cells; host or cells: unnamed cells (cytosol fraction)
T1 sequence (P10275 1-920): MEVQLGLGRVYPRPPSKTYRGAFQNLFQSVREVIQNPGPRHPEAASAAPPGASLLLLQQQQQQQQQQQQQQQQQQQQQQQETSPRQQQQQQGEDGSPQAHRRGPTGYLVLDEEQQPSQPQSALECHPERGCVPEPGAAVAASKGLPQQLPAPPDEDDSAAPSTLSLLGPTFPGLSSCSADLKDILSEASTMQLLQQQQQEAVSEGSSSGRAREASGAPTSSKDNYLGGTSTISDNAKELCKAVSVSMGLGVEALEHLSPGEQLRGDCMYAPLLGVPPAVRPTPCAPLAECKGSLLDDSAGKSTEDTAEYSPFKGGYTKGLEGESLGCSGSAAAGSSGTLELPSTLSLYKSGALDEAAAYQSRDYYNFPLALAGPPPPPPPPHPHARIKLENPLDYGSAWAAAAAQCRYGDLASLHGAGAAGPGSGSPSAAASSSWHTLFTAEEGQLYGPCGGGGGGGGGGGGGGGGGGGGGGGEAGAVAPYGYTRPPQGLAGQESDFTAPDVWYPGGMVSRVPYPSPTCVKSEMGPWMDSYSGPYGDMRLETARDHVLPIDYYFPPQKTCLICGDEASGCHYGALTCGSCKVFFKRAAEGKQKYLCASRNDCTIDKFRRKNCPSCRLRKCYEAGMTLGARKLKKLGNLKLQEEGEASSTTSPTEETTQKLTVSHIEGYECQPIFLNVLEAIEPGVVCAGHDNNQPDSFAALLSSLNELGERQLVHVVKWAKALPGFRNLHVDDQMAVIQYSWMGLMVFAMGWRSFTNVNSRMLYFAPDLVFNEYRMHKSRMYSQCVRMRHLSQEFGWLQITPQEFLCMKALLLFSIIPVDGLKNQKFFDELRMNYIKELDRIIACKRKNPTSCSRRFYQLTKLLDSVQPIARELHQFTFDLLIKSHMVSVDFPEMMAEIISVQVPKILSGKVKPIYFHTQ
The assay is described as follows: Binding affinity to androgen receptor ([3H]methyltrienolone radioligand, cell cytosol). To be noted: Table 6. The protocol: Fractions of cell cytosol ([…]) were incubated for 24 hr at 4° C. with 1 nM [^3H]methyltrienolone in the absence or presence of the test compound in a buffer containing 25 mM Hepes-Tris (pH 7.4), 1 mM EDTA, 10 mM Na2MoO4, 2 mM DTT, 5 μM triamcinolone acetonide, and 10% glycerol. Nonspecific binding was determined in the presence of 1 μM testosterone. Following incubation, the samples were filtered rapidly under vacuum through glass fiber filters (GF/B, Packard) presoaked with 0.3% PEI and rinsed several times with ice-cold 50 mM Tris-HCl using a 96-sample cell harvester (Unifilter, Packard). The filters were dried then counted for radioactivity in a scintillation counter (Topcount, Packard) using a scintillation cocktail (Microscint 0, Packard). The results are expressed as a percent inhibition of the control radioligand specific binding. The standard reference compound is testosterone, which is tested in each experiment at several concentrations to obtain a competition curve from which its IC50 is calculated.

In assay [2] the test system is T-Rex 293 cell line SC cells lacking increased expression of progesterone receptor isoform B protein. The assay is described as follows: Cellular growth inhibition, T-Rex 293 SC cells without doxycycline. The note with it: not exposed to doxycycline, 72 hours, CellTiter-Glo 2.0. Format: cell-based. The protocol:
(§1) The following types of cells were prepared for this experiment: (i) a T-Rex 293 cell line having increased expression of progesterone receptor isoform B protein due to exposure to doxycycline and (ii) a T-Rex 293 cell line lacking increased expression of progesterone receptor isoform B protein. Ability of the test compounds to inhibit proliferation of the foregoing cell types was evaluated according to the procedures set forth below.
(§2) The doxycycline-inducible progesterone receptor isoform B protein expressing cell line was established using the following protocol: T-Rex 293 cells were purchased from Invitrogen (Cat #R71007) and transfected using Lipofectamine 2000 with the wild-type progesterone receptor B protein sequence cloned into the pcDNA4/TO vector. Transfected cells were selected using 400 μg/mL Zeocin (Invitrogen Cat #R25001). Following selection, single clones were raised and maintained in Dulbecco's Modified Eagle Medium (DMEM) supplemented with 10% w/w Tetracycline-free fetal bovine serum (FBS) and 250 μg/mL Zeocin. Clones were analyzed for expression of progesterone receptor isoform B protein in the presence and absence of 10 ng/mL doxycycline (Sigma Cat #D9891), and a single doxycycline-inducible clone (hereinafter “SC”) was selected for use in downstream assays.
(§3) The SC cells were seeded on poly-D-lysine coated, black clear-bottom 384-well plates at 2500/well, in 25 μL Phenol Red Free Dulbecco's Modified Eagle Medium (DMEM) supplemented with 10% w/w charcoal-dextran treated fetal bovine serum (FBS) and 1% w/w pen-strep, with or without 10 ng/mL doxycycline. Pen-Strep is a commercially available mixture of penicillin G and streptomycin, which is used in mammalian cell culture media to prevent bacterial contamination. Phenol Red Free Dulbecco's Modified Eagle Medium (DMEM) supplemented with 10% w/w charcoal-dextran treated fetal bovine serum (FBS) and 1% w/w pen-strep, with or without 10 ng/mL doxycycline is herein referred to as Treatment Medium. Following seeding of cells in the plates, the plates were spun at 300×g for 30 seconds, then equilibrated to room temperature for 30 minutes, and then deposited in a humidified tissue culture incubator maintained at 37° C. with 5% CO2.
(§4) At 24 hours after seeding of the cells, dilutions of test compound were prepared in DMSO and dissolved in Treatment Medium, to achieve a final DMSO concentration of 0.5% w/w, thereby providing the Test Compound Solution. A 25 μL aliquot of the Test Compound Solution was added to cells in the well plates. An equal volume of a solution containing DMSO and Treatment Medium was used as a negative control. Following treatment of cells with Test Compound Solution or said equal volume of a solution containing DMSO and Treatment Medium, the plates were spun at 300×g for 30 seconds, and then left in an incubator for 72 hours.
(§5) At the end of the treatment duration, cell viability was quantified with CellTiter-Glo 2.0 reagent (Promega Cat #G9243). For this purpose, plates were equilibrated to room temperature for 30 minutes, and then 25 μL of CellTiter-Glo 2.0 reagent was added to cells in the plate wells. Plates were then agitated on a shaker for two minutes at 500 rpm and subsequently incubated at room temperature for 10 minutes. Following incubation, the plates were spun at 3000×g for 30 seconds, then sealed with an optical adhesive cover, and luminescence readings were measured with an EnVision Plate Reader (Perkin Elmer).
(§6) Data was normalized using zero luminescence for baseline. A four-parameter non-linear regression curve fit was applied to dose-response data in GraphPad Prism data analysis software to determine the half-maximal growth inhibitory concentration (GI50) for each test compound.
(In general: Cellular ATP, detected with luciferase, serves as a proxy for viable cell number.)

In assay [3] the test system is T-Rex 293 cell line SC cells having increased expression of progesterone receptor isoform B protein. Briefly: Cellular growth inhibition, T-Rex 293 SC cells with doxycycline (increased progesterone receptor isoform B expression). It is filed as cell-based. To be noted: with 10 ng/mL doxycycline (increased progesterone receptor isoform B), 72 hours, CellTiter-Glo 2.0. The protocol:
as §1, §2, §3, §4, §5, §6

SMILES strings stand for the structures.

For the compound `CCc1cnn2c(NCc3ccc(OCCN(C)c4ncc(C(=O)N[C@H]5C(C)(C)[C@H](Oc6ccc(C#N)c(Cl)c6)C5(C)C)cn4)nc3)cc(N3CCCC[C@H]3CCO)nc12` [Compound I-1], the Kd (commonly the concentration at which binding is half-saturated) in assay [1] is less than 50 nM.
Take `CCc1cnn2c(NCc3ccc(OCCOCCOCCOCCOCCN(C)c4ncc(C(=O)N[C@H]5C(C)(C)[C@H](Oc6ccc(C#N)c(Cl)c6)C5(C)C)cn4)nc3)cc(N3CCCC[C@H]3CCO)nc12` [Compound I-3]: the GI50 in assay [2] and in assay [3] was less than 500 nM in each case.
As for `CCc1cnn2c(NCc3ccc(OCCOCCOCCOCCOCCOC4CCN(c5ncc(C(=O)N[C@H]6C(C)(C)[C@H](Oc7ccc(C#N)c(Cl)c7)C6(C)C)cn5)CC4)nc3)cc(N3CCCC[C@H]3CCO)nc12` [Compound I-9], the Kd in assay [1] was less than 50 nM.
Still for that read-out and setting: the figure for `CCc1cnn2c(NCc3ccc(OCCCCOCCOC4CCN(c5ncc(C(=O)N[C@H]6C(C)(C)[C@H](Oc7ccc(C#N)c(Cl)c7)C6(C)C)cn5)CC4)nc3)cc(N3CCCC[C@H]3CCO)nc12` [Compound I-34] is less than 50 nM.
Consider `CCc1cnn2c(NCc3ccc(OCCN4CCN(CC5CCN(c6ncc(C(=O)N[C@H]7C(C)(C)[C@H](Oc8ccc(C#N)c(Cl)c8)C7(C)C)cn6)CC5)CC4)nc3)cc(N3CCCC[C@H]3CCO)nc12` [Compound I-41], for which the GI50 in assay [2] and in assay [3] was less than 500 nM each time.
In assay [1], `CCc1cnn2c(NCc3ccc(OCCCCN4CCN(CC5CCN(c6ncc(C(=O)N[C@H]7C(C)(C)[C@H](Oc8ccc(C#N)c(Cl)c8)C7(C)C)cn6)CC5)CC4)nc3)cc(N3CCCC[C@H]3CCO)nc12` [Compound I-43] registered an equilibrium dissociation constant (Kd) of less than 50 nM.
`CCc1cnn2c(NCc3ccc(OCCOCC4CCN(CC5CCN(c6ncc(C(=O)N[C@H]7C(C)(C)[C@H](Oc8ccc(C#N)c(Cl)c8)C7(C)C)cn6)CC5)CC4)nc3)cc(N3CCCC[C@H]3CCO)nc12` [Compound I-45] came in with a Kd in assay [1] of less than 50 nM.
`CCc1cnn2c(NCc3ccc(OC4CCN(CC5CCN(c6ncc(C(=O)N[C@H]7C(C)(C)[C@H](Oc8ccc(C#N)c(Cl)c8)C7(C)C)cn6)CC5)CC4)nc3)cc(N3CCCC[C@H]3CCO)nc12` [Compound I-46]: the GI50 in assay [2] and in assay [3] was less than 500 nM each time.
In turn, `CCc1cnn2c(NCc3ccc(OCCN4CCN(CC5CCN(c6ncc(C(=O)N[C@H]7C(C)(C)[C@H](Oc8ccc(C#N)c(Cl)c8)C7(C)C)cn6)CC5)CC4)nc3)cc(-c3ccccc3)nc12` [Compound I-47, N-((1r,3r)-3-(3-chloro-4-cyanophenoxy)-2,2,4,4-tetramethylcyclobutyl)-2-(4-((4-(2-((5-(((3-ethyl-5-phenylpyrazolo[1,5-a]pyrimidin-7-yl)amino)methyl)pyridin-2-yl)oxy)ethyl)piperazin-1-yl)methyl)piperidin-1-yl)pyrimidine-5-carboxamide] showed a Kd in assay [1] of less than 50 nM.
With `CCc1cnn2c(NCc3ccc(OCC4CCN(CC5CCN(c6ncc(C(=O)N[C@H]7C(C)(C)[C@H](Oc8ccc(C#N)c(Cl)c8)C7(C)C)cn6)CC5)CC4)nc3)cc(N3CCCC[C@H]3CCO)nc12` [Compound I-51], the 50% growth inhibitory concentration (GI50) in assay [2] and in assay [3] was less than 500 nM throughout.
Consider `CCc1cnn2c(NCc3ccc(OCCCN4CCN(C5CN(c6ncc(C(=O)N[C@H]7C(C)(C)[C@H](Oc8ccc(C#N)c(Cl)c8)C7(C)C)cn6)C5)CC4)nc3)cc(N3CCCC[C@H]3CCO)nc12` [Compound I-60], for which the dissociation constant (Kd) in assay [1] is less than 50 nM.
Consider `CCc1cnn2c(NCc3ccc(OCCCN4CCC(C5CN(c6ncc(C(=O)N[C@H]7C(C)(C)[C@H](Oc8ccc(C#N)c(Cl)c8)C7(C)C)cn6)C5)CC4)nc3)cc(N3CCCC[C@H]3CCO)nc12` [Compound I-61], for which the dissociation constant Kd in assay [1] is less than 50 nM.
Still for that read-out and setting: the result for `CCc1cnn2c(NCc3ccc(N4CCC(CN5CCC6CN(c7ncc(C(=O)N[C@H]8C(C)(C)[C@H](Oc9ccc(C#N)c(Cl)c9)C8(C)C)cn7)CCC6C5)CC4)nc3)cc(N3CCCC[C@H]3CCO)nc12` (stereo partly drawn) [Compound I-71] reads less than 50 nM.
Still for that read-out and setting: the figure for `CCc1cnn2c(NCc3ccc(N4CC(OCCN5CC6CN(c7ncc(C(=O)N[C@H]8C(C)(C)[C@H](Oc9ccc(C#N)c(Cl)c9)C8(C)C)cn7)CC6C5)C4)nc3)cc(N3CCCC[C@H]3CCO)nc12` (stereo partly drawn) [Compound I-72] is less than 50 nM.
For `CC(C)n1cc(-c2ccnc3[nH]c(C4CCN(CCN5CCN(CC6CCN(c7ncc(C(=O)NC8C(C)(C)C(Oc9ccc(C#N)c(Cl)c9)C8(C)C)cn7)CC6)CC5)CC4)cc23)ccc1=O` (stereo not drawn) [Compound I-74, N-[3-(3-chloro-4-cyano-phenoxy)-2,2,4,4-tetramethyl-cyclobutyl]-2-[4-[[4-[2-[4-[4-(1-isopropyl-6-oxo-3-pyridyl)-1H-pyrrolo [2,3-b]pyridin-2-yl]-1-piperidyl]ethyl]piperazin-1-yl]methyl]-1-piperidyl]pyrimidine-5-carboxamide], the GI50 in assay [2] and in assay [3] was less than 500 nM each time.
For `CCc1cnn2c(NCc3ccc(N4CCC(N5CCN(C6CN(c7ncc(C(=O)N[C@H]8C(C)(C)[C@H](Oc9ccc(C#N)c(Cl)c9)C8(C)C)cn7)C6)CC5)CC4)nc3)cc(N3CCCC[C@H]3CCO)nc12` [Compound I-86], the GI50 in assay [2] and in assay [3] was less than 500 nM each time.
On to `CC1(C)[C@H](NC(=O)c2cnc(N3CCC(CN4CCN(CCN5C/C=C/CCOc6cccc(c6)-c6ccnc(n6)Nc6cccc(c6)C5)CC4)CC3)nc2)C(C)(C)[C@H]1Oc1ccc(C#N)c(Cl)c1` [Compound I-94], for which the figures for the GI50 in assay [2] and in assay [3] were more than 3000 nM and 500 to 1500 nM, respectively.
